Experimental data as given in publication PMC8279415, “Targeting Acute Myelogenous Leukemia Using Potent Human Dihydroorotate Dehydrogenase Inhibitors Based on the 2-Hydroxypyrazolo[1,5-a]pyridine Scaffold: SAR of the Biphenyl Moiety” (Journal of Medicinal Chemistry, 2021).

Experiments:
[1] = cited from earlier work
[2] = cited from earlier work; remark: listed apart in the source
[3] = design: method as in doi:10.1158/1538-7445.AM2019-2; settings: cited from earlier work
THP1 cells [4] = test: Annexin V apoptosis assay in THP1; settings: Homo sapiens, THP-1, 72 h, read-out: apoptosis EC50 THP1 (CL 95%)
Jurkat cells = test: CFSE-based cytotoxic activity assay; settings: concentration inducing cytotoxicity ≥30%, 3 days
THP1 cells [5] = test: Differentiation assay (CD14 expression) in THP1; settings: Homo sapiens, THP-1, 72 h, read-out: differentiation EC50 THP1 (CL 95%)

| SMILES | protein binding (% bond) [1] | LogD^7.4 [2] | solubility in PBS [3] | EC50 (THP1 cells [4]) [nM] | cytoxicity Jurkat (effect ≥30% ± SD) (Jurkat cells) [µM] | EC50 (THP1 cells [5]) [nM] |
| --- | --- | --- | --- | --- | --- | --- |
| COc1cccc(-c2cc(F)c(Nc3ncccc3C(=O)O)c(F)c2)c1 [ASLAN003] | >99[25] % |  |  |  |  |  |
| CCn1c(CO)nn(-c2cc(O[C@@H](C)C(F)(F)F)c(C(=O)Nc3c(F)cccc3Cl)cc2F)c1=O [BAY-2402234, reference compound] |  | 2.7[27] | <1[31] μM | 3.4 | 36 ± 4 | 2.4 |
